Results published in patent publication US10350210B2, “EGFR and ALK dual inhibitor” (PRECEDO PHARMACEUTICALS CO., LTD, priority 2015, dated 2019).

Key:
[1] = system: BaF3-FL-EGFR-T790M-L858R; experiment: Cell growth (Cell Titer-Glo viability), BaF3-FL-EGFR-T790M-L858R; assay type: cell-based; conditions: Mus musculus; BaF3-FL-EGFR-T790M-L858R (EGFR T790M/L858R mutant kinase), 72 hrs
Method: (§1) By testing the effect of the novel kinase inhibitors on the proliferation of cancer cells, the selectivity of the compounds of the present disclosure in inhibiting the proliferation of cancer cells was further assessed. […]
(§2) The number of viable cells was determined quantitatively by a microplate reader using Cell Titer-Glo® (Promega, US) chemiluminescence cell viability assay kit.

[2] = system: NCI-H3122; experiment: Growth of cancer cells (Cell Titer-Glo viability), NCI-H3122; assay type: cell-based; conditions: Homo sapiens; NCI-H3122 (expressing ALK gene), 72 hrs; read-out: GI50
[3] = system: BaF3-TEL-EGFR-L858R; experiment: Cell growth (Cell Titer-Glo viability), BaF3-TEL-EGFR-L858R; assay type: cell-based; conditions: Mus musculus; BaF3-TEL-EGFR-L858R (EGFR L858R mutant kinase), 72 hrs
Method: as §1, §2

[4] = system: H3255; experiment: Effect on cell cycle (PI staining, flow cytometer), H3255; assay type: cell-based; conditions: H3255 (EGFR L858R), 24 hours
Description: (§3) In order to study which growth phase the cell was halted after administration of the drugs, five cell lines including non-small cell lung cancer cell line A549 (expressing wild-type EGFR gene), non-small cell lung cancer cell line H1975 (expressing EGFR L858R/T790M double mutant gene), non-small cell Lung cancer cell line PC-9 (expressing EGFR delE746_A750 mutant gene), non-small cell lung cancer cell line H3255 (expressing EGFR L858R mutant gene) and non-small cell lung cancer cell NCI-H3122 (expressing ALK gene) were tested for effect of Compound 1 on cell cycle distribution. Two cell lines including non-small cell lung cancer cell NCI-H3122 (expressing ALK gene) and non-small cell lung cancer cell H1975 (expressing EGFR L858R/T790M double mutant gene) were tested for effect of Compound 10 on cell cycle distribution. […]

[5] = system: HCC827; experiment: Growth of cancer cells (Cell Titer-Glo viability), HCC827; assay type: cell-based; conditions: Homo sapiens; HCC827 (mutant EGFR del19), 72 hrs
How it was run: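 Human kinase sequences were PCR-amplified, fused to an N-terminal TEL fragment, and stably introduced into murine BaF3 by retrovirus. IL-3 was then removed to make growth kinase-dependent. Compound effects on these cells and on EGFR-mutant HCC827 and NCI-H3255 were scored by CellTiter-Glo luminescence.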

[6] = system: PC-9; experiment: Effect on cell cycle (PI staining, flow cytometer), PC-9; assay type: cell-based, human; conditions: PC-9 (EGFR delE746_A750), 24 hours
Description: as §3

Row | Structure (SMILES) | GI50 [1] [nM] | GI50 [2] [nM] | GI50 [3] [nM] | effect on cell cycle distribution [4] | GI50 [5] [nM] | effect on cell cycle distribution [6]
1 | C=CC(=O)Nc1cc(Nc2ncc(Cl)c(Nc3ccccc3S(=O)(=O)C(C)C)n2)c(OC)cc1N1CCCN(C)CC1 [Compound 10, N-(5-(5-chloro-4-(2-(isopropylsulfonyl)phenylamino)pyrimidin-2-ylamino)-4-methoxy-2-(4-methyl-1,4-homopiperazin-1-yl)phenyl)acrylamide] | 2 | < 0.3 |  |  |  | 
2 | C=CC(=O)Nc1cc(Nc2ncc(Cl)c(Nc3ccccc3S(=O)(=O)C(C)C)n2)c(OC)cc1N1CCN(CC)CC1 [Compound 1, N-(5-(5-chloro-4-(2-(isopropylsulfonyl)phenylamino)pyrimidin-2-ylamino)-2-(4-ethylpiperazin-1-yl)-4-methoxyphenyl)acrylamide] |  |  | < 3 | halt the cells in G0-G1 phase | 3 | halt the cells in G0-G1 phase
